# Laboratory results from patent US10202390B2, “Heteroaryl substituted aminopyridine compounds” (BRISTOL-MYERS SQUIBB COMPANY, priority 2015, dated 2019).
# How the values were obtained:
# Human whole blood = test: IRAK4 Whole Blood Assay (TLR2 agonist lipoteichoic acid induced IL-6); format: cell-based; settings: 10 μg/mL lipoteichoic acid (TLR2 agonist), 5 hours, IL-6 levels
# Procedure: Human whole blood containing the anti-coagulant ACD-A was plated in 384-well plate (25 μL/well) and incubated with compounds for 60 minutes at 37° C. in a 5% CO2 incubator. The blood was stimulated with a TLR2 agonist, 10 μg/mL final concentration of lipoteichoic acid (Invivogen, San Diego, Calif.) in 25 μL RPMI (Gibco) for 5 hours in a 5% CO2 incubator. At the end of the incubation, plates were centrifuged at 2300 rpm for 5 minutes. Supernatants were harvested and analyzed for IL-6 levels by Flow Cytometry beads assay (BD Biosciences, San Jose, Calif.).
# IRAK4 = IRAK4 (Homo sapiens (Human), UniProt Q9NWZ3); test: IRAK4 Inhibition Assay; format: biochemical; settings: ATP 500 μM; IRAK4 0.6 nM; 60 min room temperature
# Procedure: The assays were performed in U-bottom 384-well plates. The final assay volume was 30 μL prepared from 15 μL additions of enzyme and substrates (fluoresceinated peptide and ATP) and test compounds in assay buffer (20 mM HEPES pH 7.2, 10 mM MgCl2, 0.015% Brij 35 and 4 mM DTT). The reaction was initiated by the combination of IRAK4 with substrates and test compounds. The reaction mixture was incubated at room temperature for 60 min. and terminated by adding 45 μL of 35 mM EDTA to each sample. The reaction mixture was analyzed on the Caliper LABCHIP® 3000 (Caliper, Hopkinton, Mass.) by electrophoretic separation of the fluorescent substrate and phosphorylated product. Inhibition data were calculated by comparison to no enzyme control reactions for 100% inhibition and vehicle-only reactions for 0% inhibition. The final concentrations of reagents in the assays are ATP, 500 μM; FL-IPTSPITTTYFFFKKK peptide 1.5 μM; IRAK4, 0.6 nM; and DMSO, 1.6%.
# [1] = Caco-2 Permeability Assay; format: in vitro ADME; settings: human, test compound 3 μM, 2 hours at 37° C., direction not given
# Procedure: Caco-2 Permeability Assay Protocol
# Thirteen to 27 days prior to assay, Caco-2 cells were seeded onto collagen-coated polycarbonate filter membranes in 24-well transwell plates at a density of 1.45×10^5 cells/cm^2, approximately 4.8×10^4 cells per well. The cells were grown in a culture medium consisting of DMEM supplemented with 10% fetal bovine serum, 10 mM HEPES, 1% nonessential amino acids, 2 mM L-glutamine, 100 U/mL penicillin-G, and 100 μg/mL streptomycin. The culture medium was replaced every 3 days and the cells were maintained at 37° C. in a 95% relative humidity and 5% CO2 atmosphere. The cells were evaluated for tight junction formation just prior to assay. The test compound was solubilized to 10 mM in 100% DMSO and diluted to 3 μM in assay buffer. Permeability studies were initiated by adding 200 μL assay buffer plus/minus compound to the apical transwell compartment and 600 μL assay buffer plus/minus compound to the basolateral compartment of the 24-well transwell low-binding cluster plate. For apical-to-basolateral (A to B) permeability (absorptive direction), buffer containing compound was placed in the apical compartment (donorwells), while buffer alone was placed in the corresponding basolateral compartments (receiverwells). For basolateral-to-apical (B to A) permeability (secretive direction), buffer containing compound was placed in the basolateral compartment (donor wells), while buffer alone was placed in the corresponding apical compartments (receiver wells). Transwells were then incubated for 2 hours at 37° C. in a 95% relative humidity and 5% CO2 atmosphere with gentle agitation. Following incubation, 100 μL was removed from each apical and basolateral compartment and transferred to 96-well low binding plates that had been previously loaded with 100 μL/well of acetonitrile containing 250 nM propranolol, 250 nM diclofenac, and 500 nM tolbutamide as internal standards. The samples were subsequently analyzed by LC-MS/MS to determine concentrations of compound.
# Sequence of IRAK4 (Q9NWZ3 whole entry): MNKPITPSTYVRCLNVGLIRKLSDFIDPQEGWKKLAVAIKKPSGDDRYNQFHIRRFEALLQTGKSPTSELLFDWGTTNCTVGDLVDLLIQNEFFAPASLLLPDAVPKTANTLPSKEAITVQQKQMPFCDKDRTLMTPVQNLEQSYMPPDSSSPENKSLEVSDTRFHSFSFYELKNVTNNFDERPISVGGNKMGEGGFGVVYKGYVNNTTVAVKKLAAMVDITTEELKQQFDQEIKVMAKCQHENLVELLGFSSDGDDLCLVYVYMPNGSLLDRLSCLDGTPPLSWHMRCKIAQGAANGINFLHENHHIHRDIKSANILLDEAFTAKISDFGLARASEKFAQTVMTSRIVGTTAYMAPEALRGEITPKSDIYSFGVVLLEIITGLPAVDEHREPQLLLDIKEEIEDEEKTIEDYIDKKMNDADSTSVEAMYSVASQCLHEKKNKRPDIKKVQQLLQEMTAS
structure (smiles),measurement,setting,value
"CCCn1cc(-c2cnc(-c3cnc4cc(C#N)cnn34)cc2NC2CC2)nn1 [Example 18, 3-(4-(cyclopropylamino)-5-(1-propyl-1H-1,2,3-triazol-4-yl)pyridin-2-yl)imidazo[1,2-b]pyridazine-7-carbonitrile]",EC50,Human whole blood,180 nM
same,IC50,IRAK4,2 nM
same,"Papp at 2 h, 3 μM",[1],22.5 ×10⁻⁶ cm/s
"CC(C)Nc1cc(-c2cnc3cc(C#N)cnn23)ncc1-c1cnn(CCC(C)(C)O)c1 [Example 27, 3-(5-(1-(3-hydroxy-3-methylbutyl)-1H-pyrazol-4-yl)-4-(isopropylamino)pyridin-2-yl) imidazo[1,2-b]pyridazine-7-carbonitrile]",EC50,Human whole blood,620 nM
same,IC50,IRAK4,3 nM
same,"Papp at 2 h, 3 μM",[1],13.6 ×10⁻⁶ cm/s
"CCCc1cn(-c2cnc(-c3cnc4cc(C#N)cnn34)cc2NC(C)C)nn1 [Example 15, 3-(4-(isopropylamino)-5-(4-propyl-1H-1,2,3-triazol-1-yl)pyridin-2-yl)imidazo[1,2-b]pyridazine-7-carbonitrile]",EC50,Human whole blood,1780 nM
same,IC50,IRAK4,6 nM
same,"Papp at 2 h, 3 μM",[1],22.5 ×10⁻⁶ cm/s
"CC(C)Nc1cc(-c2cnc3cc(C#N)cnn23)ncc1-n1cc(CCC(C)(C)O)nn1 [Example 22, 3-(5-(4-(3-hydroxy-3-methylbutyl)-1H-1,2,3-triazol-1-yl)-4-(isopropylamino)pyridin-2-yl)imidazo[1,2-b]pyridazine-7-carbonitrile]",EC50,Human whole blood,780 nM
same,IC50,IRAK4,4 nM
same,"Papp at 2 h, 3 μM",[1],29.5 ×10⁻⁶ cm/s
"CC(C)(O)CCc1cn(-c2cnc(-c3cnn4cc(C#N)cnc34)cc2N[C@H]2CC[C@H](F)C2)nn1 [Example 25, 3-(4-(((1S,3 S)-3-fluorocyclopentyl)amino)-5-(4-(3-hydroxy-3-methylbutyl)-1H-1,2,3-triazol-1-yl)pyridin-2-yl)pyrazolo[1,5-a]pyrimidine-6-carbonitrile]",EC50,Human whole blood,250 nM
same,IC50,IRAK4,5 nM
same,"Papp at 2 h, 3 μM",[1],13.4 ×10⁻⁶ cm/s
